According to US8440794B2, “Peptide sequences, their branched form and use thereof for antimicrobial applications” (Universita' Degli Studi di Siena, priority 2008, dated 2013):
Converted amounts (≈) assume the structure as drawn. Read-outs that look alike come from different tables or passages of the source. Where a SMILES comes first, the peptide text is derived from it. Bridges are numbered along the chain shown (N, C = ends). Roman numbers before positions name the chains, in order. Where no end group is shown, it is not given here. [ ]: non-standard residue; d: D form. βAla = NCCC(=O)O

What was measured:
K pneumoniae FIPP-1 = type: cell-based, Klebsiella pneumoniae
Experimental: (§1) M33, […], M35 and M36 MICs were determined against strains of several bacterial species, including Gram-negative pathogens and also Staphylococcus aureus (Table 1). MICs in the micromolar range were observed against several Gram-negatives including Pseudomonas aeruginosa, Acinetobacter baumannii and most Enterobacteriaceae, with the exception of Proteus mirabilis, Serratia marcescens and Burkholderia cepacia. Activity of peptides was retained against MDR strains with various resistance mechanisms (such as extended-spectrum beta-lactamases and carbapenemases), including MDR P. aeruginosa strains from CF patients. Antimicrobial profile of M33, […] and potency were overall similar to those of polymyxin B, although M33, M34, M35 and M36 also appeared to have some activity against S. aureus (Table 1).

K pneumoniae C8-27 = type: cell-based, Klebsiella pneumoniae
Experimental: as §1

K pneumoniae 7086042 = type: cell-based, Klebsiella pneumoniae
Experimental: as §1

human erythrocytes = type: cell-based
Experimental: FIG. 2. Percentage of haemolysis provoked by tetra-branched M33 peptide incubated 3 or 24 hours with human red blood cells.
Haemolysis of fresh human erythrocytes was determined using the method of Parpart, summarized as follows. A calibration curve was constructed by suspending fresh human erythrocytes in phosphate buffer (pH 7.4, 110 mM sodium phosphate) with various concentrations of NaCl and incubated for 30 min at room temperature. Samples were centrifuged at 500×g for 5 minutes, and haemoglobin release was monitored by measuring the absorbance of supernatants at 540 nm. The absorbance obtained with 0.1% NaCl corresponded to 100% lysis and that with 1% NaCl, to 0% lysis. Peptides dissolved in PBS were added to human erythrocyte solution at several concentrations. The resulting suspension was incubated separately at 37° C. for 2 h and 24 h. Release of hemoglobin was monitored by measuring the absorbance of the suspernatant at 540 nm after centrifuging and haemolysis percentage was calculated using the calibration curve.

E. coli W03BG0025 = type: cell-based, Escherichia coli
Experimental: as §1

[1] = test system: P. aeruginosa SC-MDm03-02; type: cell-based, Pseudomonas aeruginosa
Experimental: as §1

[2] = test system: P. aeruginosa SC-VMr04-05; type: cell-based, Pseudomonas aeruginosa
Experimental: as §1

[3] = test system: P. aeruginosa SC-GMm03-05; type: cell-based, Pseudomonas aeruginosa
Experimental: as §1

[4] = test system: P. aeruginosa SC-BGr12-02; type: cell-based, Pseudomonas aeruginosa
Experimental: as §1

P. aeruginosa VR-143/97 = type: cell-based, Pseudomonas aeruginosa
Experimental: as §1

P. aeruginosa EF-OBG6-1 = type: cell-based, Pseudomonas aeruginosa
Experimental: as §1

[5] = test system: P. aeruginosa SC-MDr03-06; type: cell-based, Pseudomonas aeruginosa
Experimental: as §1

[6] = test system: P. aeruginosa SC-DMr05-04; type: cell-based, Pseudomonas aeruginosa
Experimental: as §1

[7] = test system: P. aeruginosa SC-CNm03-07; type: cell-based, Pseudomonas aeruginosa
Experimental: as §1

P. aeruginosa PAO-1 = type: cell-based, Pseudomonas aeruginosa
Experimental: as §1

P. aeruginosa AV65 = type: cell-based, Pseudomonas aeruginosa
Experimental: as §1

A. baumannii MR157 = type: cell-based, Acinetobacter baumannii
Experimental: as §1

A. baumannii RUH 875 = type: cell-based, Acinetobacter baumannii
Experimental: as §1

[8] = test system: Burkholderia cepacia ORB-99; type: cell-based
Experimental: as §1

[9] = test system: Pseudomonas aeruginosa ATCC 27853; type: cell-based
Experimental: as §1

[10] = test system: Proteus mirabilis W03VA1017; type: cell-based
Experimental: as §1

[11] = test system: Enterobacter cloacae W03AN0041; type: cell-based
Experimental: as §1

[12] = test system: Serratia marcescens W03BG0003; type: cell-based
Experimental: as §1

[13] = test system: Staphylococcus aureus ATCC 29213; type: cell-based
Experimental: as §1

[14] = test system: Escherichia coli ATCC 25922; type: cell-based
Experimental: as §1

[15] = test system: Acinetobacter baumannii RUH 134; type: cell-based
Experimental: as §1

[16] = test system: Enterobacer aerogenes W03BG0067; type: cell-based
Experimental: as §1

[17] = test system: Klebsiella pneumoniae ATCC 13833; type: cell-based
Experimental: as §1

S. aureus 3851 = type: cell-based, Staphylococcus aureus
Experimental: as §1

E. coli TG1 = assay: Antibacterial activity against E. coli TG1 cells (CFU count after 75 min incubation, FIG. 1A); type: cell-based; conditions: 75 minutes at 37° C., CFU counted
Text: FIG. 1. A, Antibacterial activity against E. coli TG1 cells. Comparison of the following tetra-branched peptides: M6 batch 1 synthesis (triangles), M6 batch 2 synthesis (squares), M6 batch 3 synthesis (white circles), which contain a mixture of Gln and pyroGlu (in unknown percentages) as first amino-acid, […] (asterisks), where the first amino-acid is 100% pyroGlu, and M33 (black circles), in which the first Gln was deleted. […] SD derived by means of three different experiments. Many different syntheses of M33 (and also of M34, M35 and M36, here not shown) gave perfectly overlapping results without any wavering outcome. B, Mass spectrometry analysis of tetra-branched peptide M6 crude mixture. Calculated molecular mass of M6 was 5195 Da. Two main peaks are present, one at 5197 Da corresponding to unmodified M6 and one at 5179 Da that corresponds to the secondary product with one pyroGlu in first position in the place of one of the four Gln. C, Mass spectrometry analysis of tetrabranched peptide M33 after 24 hours of incubation in serum. The peptide appears as a single peak at the expected molecular mass (4683 Da).
A single colony of E. coli TG1 strain was cultured in 2×TY medium to 0.2 OD^600. […] The following day colonies (CFU/ml) grown on plates were counted.

Compound: CC[C@H](C)[C@H](NC(=O)[C@H](CCCCN)NC(=O)[C@@H](N)CCCNC(=N)N)C(=O)N[C@@H](CCCNC(=N)N)C(=O)N[C@H](C(=O)N[C@@H](CCCNC(=N)N)C(=O)N[C@@H](CC(C)C)C(=O)N[C@@H](CO)C(=O)N[C@@H](C)C(=O)NCCCC[C@H](NC(=O)[C@H](C)NC(=O)[C@H](CO)NC(=O)[C@H](CC(C)C)NC(=O)[C@H](CCCNC(=N)N)NC(=O)[C@@H](NC(=O)[C@H](CCCNC(=N)N)NC(=O)[C@@H](NC(=O)[C@H](CCCCN)NC(=O)[C@@H](N)CCCNC(=N)N)[C@@H](C)CC)C(C)C)C(=O)NCCCC[C@H](NC(=O)[C@H](CCCCNC(=O)[C@H](C)NC(=O)[C@H](CO)NC(=O)[C@H](CC(C)C)NC(=O)[C@H](CCCNC(=N)N)NC(=O)[C@@H](NC(=O)[C@H](CCCNC(=N)N)NC(=O)[C@@H](NC(=O)[C@H](CCCCN)NC(=O)[C@@H](N)CCCNC(=N)N)[C@@H](C)CC)C(C)C)NC(=O)[C@H](C)NC(=O)[C@H](CO)NC(=O)[C@H](CC(C)C)NC(=O)[C@H](CCCNC(=N)N)NC(=O)[C@@H](NC(=O)[C@H](CCCNC(=N)N)NC(=O)[C@@H](NC(=O)[C@H](CCCCN)NC(=O)[C@@H](N)CCCNC(=N)N)[C@@H](C)CC)C(C)C)C(=O)NCCC(=O)O)C(C)C [M36, RKIRVRLSA] (I: H-RKIRVRLSAKK[βAla]-OH / II: H-RKIRVRLSAK / III: H-RKIRVRLSA / IV: H-RKIRVRLSA; amide I:10-IV:C, I:11-II:C, II:10-III:C; N-terminus assumed)
- MIC (K pneumoniae FIPP-1; FIPP-1, 24 h): 3 µM (≈ 14.4 µg/mL)
- MIC (K pneumoniae C8-27; C8-27, 24 h): 1.5 µM (≈ 7.19 µg/mL)
- MIC (K pneumoniae 7086042; 7086042, 24 h): 3 µM (≈ 14.4 µg/mL)
- Haemolysis of human red blood cells (human erythrocytes): practically negligible haemolysis grade
- MIC (E. coli W03BG0025; W03BG0025, 24 h): 1.5 µM (≈ 7.19 µg/mL)
- MIC ([1]; SC-MDm03-02, 24 h): 3 µM (≈ 14.4 µg/mL)
- MIC ([2]; SC-VMr04-05, 24 h): 3 µM (≈ 14.4 µg/mL)
- MIC ([3]; SC-GMm03-05, 24 h): 1.5 µM (≈ 7.19 µg/mL)
- MIC ([4]; SC-BGr12-02, 24 h): 1.5 µM (≈ 7.19 µg/mL)
- MIC (P. aeruginosa VR-143/97; VR-143/97, 24 h): 1.5 µM (≈ 7.19 µg/mL)
- MIC (P. aeruginosa EF-OBG6-1; EF-OBG6-1, 24 h): 1.5 µM (≈ 7.19 µg/mL)
- MIC ([5]; SC-MDr03-06, 24 h): 3 µM (≈ 14.4 µg/mL)
- MIC ([6]; SC-DMr05-04, 24 h): 1.5 µM (≈ 7.19 µg/mL)
- MIC ([7]; SC-CNm03-07, 24 h): 0.3 µM (≈ 1.44 µg/mL)
- MIC (P. aeruginosa PAO-1; PAO-1, 24 h): 1.5 µM (≈ 7.19 µg/mL)
- MIC (P. aeruginosa AV65; AV65, 24 h): 1.5 µM (≈ 7.19 µg/mL)
- MIC (A. baumannii MR157; MR157, 24 h): 3 µM (≈ 14.4 µg/mL)
- MIC (A. baumannii RUH 875; RUH 875, 24 h): 3 µM (≈ 14.4 µg/mL)
- MIC ([8]; 24 h): >24 µM
- MIC ([9]; ATCC 27853, 24 h): 1.5 µM (≈ 7.19 µg/mL)
- MIC ([10]; W03VA1017, 24 h): >24 µM
- MIC ([11]; W03AN0041, 24 h): 3 µM (≈ 14.4 µg/mL)
- MIC ([12]; W03BG0003, 24 h): >24 µM
- MIC ([13]; ATCC 29213, 24 h): 6 µM (≈ 28.8 µg/mL)
- MIC ([14]; ATCC 25922, 24 h): 1.5 µM (≈ 7.19 µg/mL)
- MIC ([15]; RUH 134, 24 h): 1.5 µM (≈ 7.19 µg/mL)
- MIC ([16]; 24 h): 1.5 µM (≈ 7.19 µg/mL)
- MIC ([17]; ATCC 13833, 24 h): 1.5 µM (≈ 7.19 µg/mL)
- MIC (S. aureus 3851; 3851, 24 h): 6 µM (≈ 28.8 µg/mL)

Compound: QKKIRVRLSA (also: tetra-branched MAP) [M6, previously reported tetra-branched MAP peptide with Gln as first amino-terminal residue, reference compound]
- Antibacterial activity against E. coli TG1 cells (comparison of tetra-branched peptides, FIG. 1A) (E. coli TG1): intermediate antimicrobial activities

Compound: Polymyxin B [reference compound]
- MIC (K pneumoniae FIPP-1; K pneumoniae FIPP-1, FQr AGr ESCr NEMr (MBL/KPC-3)): 1.5 µM
- MIC (K pneumoniae C8-27; K pneumoniae C8-27, FQr AGr ESCr ETPr (ESBL/CTX-M-15)): 0.7 µM
- MIC (K pneumoniae 7086042; K pneumoniae 7086042, FQr AGr ESCr NEMr (MBL/VIM-1)): 1.5 µM
- MIC (E. coli W03BG0025; E. coli W03BG0025, FQr AGr ESCr (ESBL/CTX-M-15)): 0.7 µM
- MIC ([1]; P. aeruginosa SC-MDm03-02, CF clinical isolate, mucoid, FQr AGr ESCr NEMr): 1.5 µM
- MIC ([2]; P. aeruginosa SC-VMr04-05, CF clinical isolate, FQr AGr ESCr NEMr): 1.5 µM
- MIC ([3]; P. aeruginosa SC-GMm03-05, CF clinical isolate, mucoid, FQr AGr ESCr NEMr): 1.5 µM
- MIC ([4]; P. aeruginosa SC-BGr12-02, CF clinical isolate, FQr AGr ESCr NEMr): 1.5 µM
- MIC (P. aeruginosa VR-143/97; P. aeruginosa VR-143/97, FQr AGr ESCr NEMr (MBL/VIM-1)): 1.5 µM
- MIC (P. aeruginosa EF-OBG6-1; P. aeruginosa EF-OBG6-1, CF clinical isolate, FQr AGr ESCr NEMr (MBL/IMP-13)): 0.7 µM
- MIC ([5]; P. aeruginosa SC-MDr03-06, CF clinical isolate, FQr AGr ESCr NEMr): 1.5 µM
- MIC ([6]; P. aeruginosa SC-DMr05-04, CF clinical isolate, FQr AGr ESCr NEMr): 1.5 µM
- MIC ([7]; P. aeruginosa SC-CNm03-07, CF clinical isolate, mucoid, FQr AGr ESCr NEMr): 0.7 µM
- MIC (P. aeruginosa PAO-1; P. aeruginosa PAO-1, reference strain, wild type): 1.5 µM
- MIC (P. aeruginosa AV65; P. aeruginosa AV65, FQr AGr ESCr NEMr (MBL/IMP-13)): 1.5 µM
- MIC (A. baumannii MR157; A. baumannii MR157, FQr AGr ESCr NEMr (OXA/OXA-58)): 1.5 µM
- MIC (A. baumannii RUH 875; A. baumannii RUH 875, reference strain, European clone I): 1.5 µM
- MIC ([8]; Burkholderia cepacia ORB-99, CF clinical isolate, wild type): >96 µM
- MIC ([9]; Pseudomonas aeruginosa ATCC 27853, reference strain, wild type): 1.5 µM
- MIC ([10]; Proteus mirabilis W03VA1017, FQr ESCr (AmpC/CMY-16)): >96 µM
- MIC ([11]; Enterobacter cloacae W03AN0041, ESCr (ESBL/SHV-12)): 0.7 µM
- MIC ([12]; Serratia marcescens W03BG0003, FQr AGr ESCr (ESBL/SHV-12)): >96 µM
- MIC ([13]; Staphylococcus aureus ATCC 29213, reference strain, PENr): 96 µM
- MIC ([14]; Escherichia coli ATCC 25922, reference strain, wild type): 0.7 µM
- MIC ([15]; Acinetobacter baumannii RUH 134, reference strain, European clone II): 1.5 µM
- MIC ([16]; Enterobacer aerogenes W03BG0067, AGr ESCr (ESBL/SHV-5)): 0.7 µM
- MIC ([17]; Klebsiella pneumoniae ATCC 13833, reference strain, wild type): 0.7 µM
- MIC (S. aureus 3851; S. aureus 3851, MR VANi): 96 µM
